Experimental data reported in US8779235B2, “Engineering single-gene-controlled staygreen potential into plants” (Pioneer Hi-Bred International, Inc., priority 2003, dated 2014).

Legend:
Format in all cases: in vivo, maize
[1] = tested on: acs6/acs6 plants; test: total soluble leaf protein after 7 day dark treatment; conditions: watered with 100 μM ACC
Protocol: (§1) FIG. 20 Panel A illustrates chlorophyll data, Panel B soluble protein, and Panel C Rubisco expression. The level of chlorophyll a+b (Panel A) and soluble protein (Panel B) was measured in the third oldest leaf (Leaf 3), sixth oldest leaf (Leaf 6), and ninth oldest leaf (Leaf 9) of adult wild-type (i.e., ACS6/ACS6), acs21acs2, and acs61acs6 plants following dark treatment for 7 days. Plants were watered daily. Additional acs61acs6 plants were watered daily with 100 μM ACC during the treatment. acs61acs6 leaves watered with 100 μM ACC but kept unsheathed are also shown. The average and standard deviation of leaves from three individual plants is shown. (Panel C) Western analysis of the same leaves was performed using rice anti-Rubisco antiserum. Soluble protein from leaf samples of equal fresh weight was used.
For total protein isolation, leaves of B73 or mutant plants were collected at the indicated times, quick-frozen in liquid nitrogen and ground to a fine powder. […] Samples were centrifuged 10 min at 10,000 rpm, the supernatant removed to a new tube and the concentration determined spectrophotometrically according to the methods of Bradford (1976). See, Bradford M M (1976) A rapid and sensitive method for the quantitation of microgram quantities of protein utilizing the principle of protein-dye binding. […]

[2] = tested on: acs6/acs6 plants; test: dark-induced senescence of sheathed leaves, complementation of the acs6 mutant by exogenous ACC
Protocol: To examine if exogenous ACC could complement the acs6 mutant and reverse its staygreen phenotype, the third oldest, sixth, and ninth leaf from ACS6/ACS6, acs2/acs2, and acs6/acs6 plants were subject to dark-induced senescence at 20 DAP by covering them with sheaths for 7 days. All leaves were fully green at the onset of the experiment and remained attached to the plant. acs6/acs6 plants were watered daily with water or 100 μM ACC for 7 days. Following 7 days, dark-induced senescence had initiated in wild-type (i.e., ASC6/ASC6) leaves although it had not progressed to the extent observed following a 2 week dark treatment. […] Dark-induced senescence was also observed in leaf 3 of the acs2 homozygous mutant although it was less pronounced than that observed in the corresponding wild-type leaves.

[3] = tested on: acs6/acs6 plants; test: Western analysis for Rubisco in leaves
Protocol: as §1
B73 leaves were collected at the indicated times and ground in liquid nitrogen to a fine powder. One ml of extraction buffer [20 mM HEPES (pH 7.6), 100 mM KCl, 10% glycerol, 1 mM PMSF] was added to approximately 0.1 g frozen powder and mixed thoroughly. Cell debris was pelleted by centrifugation at 10,000 rpm for 10 min and the protein concentration determined as described (Bradford, 1976). […] The blots were washed twice with TPBS and the signal detected typically between 1 to 15 min using chemiluminescence (Amersham Corp). […]

[4] = tested on: acs6/acs6 plants; test: chlorophyll a+b level in leaves after 7 day dark treatment
Protocol: as §1
Leaves were frozen in liquid nitrogen and ground to a fine powder. Samples of approximately 0.1 g were removed to a 1.5 ml tube and weighed. Chlorophyll was extracted 5× with 1 ml (or 0.8 ml) of 80% acetone. Individual extractions were combined and the final volume adjusted to 10 ml (or 15 ml) with additional 80% acetone. Chlorophyll content (a+b) was determined spectrophotometrically according to the methods of Wellburn (1994). […]

NC1(C(=O)O)CC1 [ACC, 1-aminocyclopropane-1-carboxylic acid]
retention of total soluble leaf protein compared with wild-type leaves [1]: did not do so when watered with 100 μM ACC
senescence of leaves that were not sheathed (visual) ([2]; acs6 leaves not sheathed, plants watered daily with 100 μM ACC for 7 days): did not affect acs6 leaves that were not sheathed
dark-induced senescence (visual) ([2]; acs6 leaves sheathed 7 days at 20 DAP, plants watered daily with 100 μM ACC): dark-induced senescence similar to that of wild-type leaves was observed
loss of Rubisco ([3]; ACC-treated acs6 leaves that remained in the light): No loss of Rubisco was observed
loss of Rubisco ([3]; dark-treated acs6 leaves watered with 100 μM ACC): lost an amount of Rubisco similar to that of dark-treated B73 leaves
retention of chlorophyll a+b compared with wild-type leaves ([4]; acs6 leaves, 7 day dark treatment, watered with 100 μM ACC): did not do so when watered with 100 μM ACC
loss of chlorophyll ([4]; unsheathed leaves of acs6 mutants watered with ACC): chlorophyll was not lost
